From a compilation of properties of binary mixtures (doi:10.1016/j.molliq.2019.01.093)

Assay: xn = mol fraction of the nth substance listed
Settings: 298.1 K, 100 kPa

CC(=O)[O-].CC[n+]1ccn(C)c1 + CS(C)=O
Settings	electrical conductivity [S/m]
x1 = 0.01	0.16
x1 = 0.029	0.48
x1 = 0.044	0.63
x1 = 0.055	0.73
x1 = 0.082	0.83
x1 = 0.165	1.04
x1 = 0.237	1.07
x1 = 0.313	1.01
x1 = 0.415	0.93
x1 = 0.513	0.81
x1 = 0.813	0.5
x1 = 1	0.38

CCOP(=O)([O-])OCC.CC[n+]1ccn(C)c1 + CS(C)=O
Settings	electrical conductivity [S/m]
x1 = 0.006	0.1
x1 = 0.013	0.19
x1 = 0.04	0.48
x1 = 0.059	0.57
x1 = 0.074	0.62
x1 = 0.119	0.68
x1 = 0.169	0.64
x1 = 0.233	0.57
x1 = 0.32	0.5
x1 = 0.544	0.28

CC[n+]1ccn(C)c1.F[B-](F)(F)F + CS(C)=O
Settings	electrical conductivity [S/m]
x1 = 0.01	0.25
x1 = 0.017	0.69
x1 = 0.021	0.67
x1 = 0.032	1.04
x1 = 0.051	1.24
x1 = 0.066	1.53
x1 = 0.097	1.68
x1 = 0.15	1.84
x1 = 0.286	1.67
x1 = 0.483	1.48
x1 = 0.782	1.13
x1 = 1	0.91
